Experimental data from patent US7521414B2, “Polyol macrolide antitumor-antibiotics from the marine actinomycete strain CNQ140” (priority 2003, dated 2009).
In brackets after ≈: the same amount, converted by molar mass.

Key:
Assay type in all cases: cell-based
[1] = test system: HCT-116 human colon adenocarcinoma cancer cells; experiment: anticancer activity against HCT-116 colon cancer cell line; details: for growth inhibition against the cancer cell line HCT-116 human colon carcinoma: in words
Method: For extraction of compounds from the CNQ140 actinomycete, the following protocol was used. Pre-washed XAD-7 resin (20 g) was added to 1 liter of culture and mixed for 1 hour. The contents were collected by filtration, washed with deionized water (1 liter) and eluted with acetone (250 ml). The extraction liquid from each successive extraction step (as shown in FIG. 1) was tested for anticancer activity (IC50) against HCT-116 colon cancer cell line. […] A second extraction step using C-18 reverse phase HPLC and a solvent of 65% MeCN in water yielded four distinct compounds with activity against the colon cancer cell line. […] The chemical structures of these compounds appear below:
(§1) As shown by the data in Table 1 below the invention therapeutic compounds have both anticancer and antibiotic activity, as illustrated in tests against HCT-116 human colon adenocarcinoma cancer cells (HCT-116); methicillin resistant Staphylococcus aureus (MRSA); and vancomycin-resistant Enterococcus faecium (VREF):
Pre-washed XAD-7 resin (20 g) was added to 1 liter of culture and mixed for 1 hour. The contents were collected by filtration, washed with deionized water (1 liter) and eluted with acetone (250 ml). The extraction liquid from each successive extraction step (as shown in FIG. 1) was tested for anti-cancer activity (IC50) against HCT-116 colon cancer cell line. […] A second chromatographic purification step for fraction CNQ140-3, using C-18 reverse phase HPLC and 65% MeCN in water, yielded four distinct CNQ140 macrolide polyol-polyene compounds with activity against the colon cancer cell line: […]

[2] = test system: methicillin resistant Staphylococcus aureus (MRSA); experiment: antibiotic activity (MIC) against MRSA
Source text: as §1
(§2) As shown by the data in Table 1 below the invention therapeutic compounds have both anticancer and antibiotic activity, as illustrated in tests against HCT-116 colon cancer cells (HCT-116); methicillin resistant Staphylococcus aureus (MRSA); and vancomycin-resistant Enterococcus faecium (VREF).

[3] = test system: vancomycin-resistant Enterococcus faecium (VREF); experiment: antibiotic activity (MIC) against VREF
Source text: as §1, §2

[4] = test system: all 60 cell lines; experiment: National Cancer Institute's 60 cancer cell line in vitro cytotoxicity assay
Source text: Compounds CNQ140.996a, CNQ140.996b, and CNQ140.996c were examined in the National Cancer Institute's 60 cancer cell line, in vitro, cytotoxicity assay. The following cytoxicity data were derived for the invention compounds: […]

SMILES | HCT-116 (IC50 microgm/ml) ([1]; HCT-116 cells) | growth inhibition against the cancer cell line HCT-116 human colon carcinoma [1] | MRSA (MIC microgm/ml) [2] | VREF (MIC microgm/ml) [3] | IC50 ([1]; Homo sapiens, HCT-116, HCT-116 cells, read-out: HCT-116 (IC50 microgm/ml)) | GI50 ([4]; average over NCI 60 cell lines, read-out: Average GI50 against all 60 cell lines) | tissue type selectivity ([4]; most sensitive: 6 of the 8 melanoma cancer types (LOX IMVI, M14, SK-MEL-2, SK-MEL-5, UACC-257, UACC-62))
CCC(O)CC1CC(O)C/C=C/[C@@H](O)C[C@@H](O)C/C(C)=C/C=C/C=C/C=C\c2cccc(O)c2C(=O)OC(CC(C)O)CC(O)C/C=C/[C@@H](O)C[C@@H](O)C/C(C)=C/C=C/C=C/C=C\c2cccc(O)c2C(=O)O1 (stereo partly shown) [CNQ140.1010] | 3.1 microgm/ml | showed growth inhibition | 0.25 microgm/ml | 0.25 microgm/ml | – | – | –
CCC(O)CC1CC(O)C/C=C/[C@@H](O)C[C@@H](O)C/C(C)=C/C=C/C=C/C=C\c2cccc(O)c2C(=O)OC(CC(C)O)CC(O)C/C=C/[C@@H](O)C[C@@H](O)C/C(C)=C/C=C/C=C/C=C\c2cccc(O)c2C(=O)O1 (stereo partly shown) [CNQ140.996c] | – | showed growth inhibition | 0.25 microgm/ml | 0.25 microgm/ml | 2.6 µg/mL (≈ 2.57 µM) | 5.1 nM | significant tissue type selectivity
